Here are results for 35 compounds from patent US20240350643A1, “PROTEIN DEGRADATION AGENT” (SUZHOU KINTOR PHARMACEUTICALS, INC., priority 2021, published 2024).

The target of one test is T1, c-Myc protein (Homo sapiens, UniProt P01106).
T1 construct: endogenous in cells; host or cells: HL60 cells
Description: Ability of compounds to degrade c-Myc protein in HL60 cells (ELISA). Format: cell-based. The conditions noted are these: HL-60, 1 μM compound, 24 h, read-out: HL60 cells Protein degradation rate (1 μM). In general terms: In an ELISA, binding on a coated surface is turned into a signal by an enzyme label.

Another test relates to HL60 cells. Description: Anti-proliferation ability of compounds on HL60 cells (CTG). It is filed as cell-based, human. The conditions noted are these: Homo sapiens, HL-60, 72 h, 3 days, CellTiter-Glo, read-out: HL60 cells Proliferation inhibitory activity. Summed up: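 Proliferation inhibition IC50 derived from CellTiter-Glo luminescence after 3-day compound treatment of HL60 cells plated at 20000 per well, against 0.1% DMSO controls.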
In general terms: Cellular ATP, detected with luciferase, serves as a proxy for viable cell number.

T1 sequence (P01106 whole entry): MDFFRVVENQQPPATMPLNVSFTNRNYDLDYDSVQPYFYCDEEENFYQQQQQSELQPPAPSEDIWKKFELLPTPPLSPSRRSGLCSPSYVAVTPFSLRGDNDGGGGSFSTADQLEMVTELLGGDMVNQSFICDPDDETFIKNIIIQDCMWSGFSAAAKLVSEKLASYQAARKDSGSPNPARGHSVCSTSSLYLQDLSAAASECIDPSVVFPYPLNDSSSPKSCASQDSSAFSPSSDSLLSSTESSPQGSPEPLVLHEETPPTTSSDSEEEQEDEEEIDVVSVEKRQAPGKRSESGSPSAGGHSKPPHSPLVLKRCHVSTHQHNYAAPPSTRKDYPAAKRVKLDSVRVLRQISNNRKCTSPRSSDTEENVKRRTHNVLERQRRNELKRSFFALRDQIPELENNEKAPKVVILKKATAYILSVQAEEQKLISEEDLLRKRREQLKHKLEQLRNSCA

Turning to `CN(Cc1ccc(CNC(=O)c2ccc3c(c2)C(=O)N(C2CCC(=O)NC2=O)C3=O)cc1)C(=O)Cn1c2ccccc2c2cccnc21` (stereo not shown) [A72], the inhibition at 1 µM on c-Myc protein fell in the range of 60 to 90%. In addition, the IC50 with HL60 cells was determined as 45.6 ± 3 nM.

Regarding `O=C1CCC(N2C(=O)c3ccc(C(=O)NCc4ccc(CNCCc5cccc6ccccc56)cc4)cc3C2=O)C(=O)N1` (stereo not shown) [A73], the inhibition at 1 µM at c-Myc protein lay in the range of 60 to 90%. The IC50 in the test on HL60 cells is 59.3 ± 5.7 nM.

Consider `O=C1CCC(N2C(=O)c3ccc(C(=O)NCc4ccc(CNCCn5c6ccccc6c6cccnc65)cc4)cc3C2=O)C(=O)N1` (stereo not shown) [A74], for which, on c-Myc protein, the inhibition at 1 µM fell in the range of 60 to 90%. In addition, the IC50 with HL60 cells is 5.5 ± 2.3 nM.

For the compound `O=C1CCC(N2C(=O)c3ccc(C(=O)NCc4ccc(COCCc5cccc6ccccc56)cc4)cc3C2=O)C(=O)N1` (stereo not shown) [A75], at c-Myc protein, the inhibition at 1 µM lay in the range of 60 to 90%. Also, the IC50 with HL60 cells was found to be 2730 ± 614 nM.

Take `O=C1CCC(N2C(=O)c3ccc(C(=O)NCc4ccc(COCCn5c6ccccc6c6cccnc65)cc4)cc3C2=O)C(=O)N1` (stereo not shown) [A76]: the inhibition at 1 µM on c-Myc protein was in the range of 60 to 90%. Further, in the test on HL60 cells, the IC50 amounted to 432 ± 138 nM.

Regarding `CS(=O)(=O)N(CCc1cccc2ccccc12)Cc1ccc(CNC(=O)c2ccc3c(c2)C(=O)N(C2CCC(=O)NC2=O)C3=O)cc1` (stereo not shown) [A77], the inhibition at 1 µM at c-Myc protein lay within 60 to 90%. For the same compound, in the test with HL60 cells, the IC50 came out at 73.4 nM.

Consider `CS(=O)(=O)N(CCn1c2ccccc2c2cccnc21)Cc1ccc(CNC(=O)c2ccc3c(c2)C(=O)N(C2CCC(=O)NC2=O)C3=O)cc1` (stereo not shown) [A78], for which the inhibition at 1 µM at c-Myc protein was 60 to 90%. Moreover, the IC50 in the test with HL60 cells stood at 4.6 nM.

As for `CC(=O)N(CCc1cccc2ccccc12)Cc1ccc(CNC(=O)c2ccc3c(c2)C(=O)N(C2CCC(=O)NC2=O)C3=O)cc1` (stereo not shown) [A79], the inhibition at 1 µM on c-Myc protein was in the range of 60 to 90%. Moreover, in the test on HL60 cells, the IC50 was 21.7 nM.

Turning to `CC(C)C(=O)N(CCc1cccc2ccccc12)Cc1ccc(CNC(=O)c2ccc3c(c2)C(=O)N(C2CCC(=O)NC2=O)C3=O)cc1` (stereo not shown) [A80], the inhibition at 1 µM on c-Myc protein lay in the range of 60 to 90%. Also, the IC50 with HL60 cells was < 3 nM.

Take `O=C1CCC(N2C(=O)c3ccc(C(=O)NCc4ccc(CN(CCc5cccc6ccccc56)C(=O)C5CC5)cc4)cc3C2=O)C(=O)N1` (stereo not shown) [A81]: on c-Myc protein, the inhibition at 1 µM was 60 to 90%. Also, in the test with HL60 cells, the IC50 is < 3 nM.

For `CC(=O)N(CCn1c2ccccc2c2cccnc21)Cc1ccc(CNC(=O)c2ccc3c(c2)C(=O)N(C2CCC(=O)NC2=O)C3=O)cc1` (stereo not shown) [A82], the inhibition at 1 µM at c-Myc protein was in the range of 60 to 90%. In addition, in the test with HL60 cells, the IC50 is < 3 nM.

For `CN(CCc1cccc2ccccc12)Cc1ccc(CNC(=O)c2ccc3c(c2)C(=O)N(C2CCC(=O)NC2=O)C3=O)cc1` (stereo not shown) [A83], on c-Myc protein, the inhibition at 1 µM lay in the range of 30 to 60%. Further, the IC50 in the test on HL60 cells was determined as 27.2 ± 7.6 nM.

For the compound `CN(CCn1c2ccccc2c2cccnc21)Cc1ccc(CNC(=O)c2ccc3c(c2)C(=O)N(C2CCC(=O)NC2=O)C3=O)cc1` (stereo not shown) [A84], the inhibition at 1 µM on c-Myc protein was 60 to 90%. Further, the IC50 with HL60 cells is 13.1 ± 6.2 nM.

In the case of `CC(C)N(CCc1cccc2ccccc12)Cc1ccc(CNC(=O)c2ccc3c(c2)C(=O)N(C2CCC(=O)NC2=O)C3=O)cc1` (stereo not shown) [A85], the inhibition at 1 µM on c-Myc protein fell in the range of 60 to 90%. For the same compound, in the test on HL60 cells, the IC50 is 21.3 ± 10.9 nM.

For the compound `CC(C)N(CCn1c2ccccc2c2cccnc21)Cc1ccc(CNC(=O)c2ccc3c(c2)C(=O)N(C2CCC(=O)NC2=O)C3=O)cc1` (stereo not shown) [A86], the inhibition at 1 µM at c-Myc protein was in the range of 60 to 90%. Besides, in the test with HL60 cells, the IC50 was 24.4 ± 10.4 nM.

`CC(C)N(CCc1cccc(Cl)c1Cl)Cc1ccc(CNC(=O)c2ccc3c(c2)C(=O)N(C2CCC(=O)NC2=O)C3=O)cc1` (stereo not shown) [A87]: the inhibition at 1 µM on c-Myc protein fell in the range of 60 to 90%. In addition, the IC50 with HL60 cells is 11.5 nM.

As for `O=C1CCC(N2C(=O)c3ccc(C(=O)NCc4ccc(CN(CCc5cccc6ccccc56)C5CC5)cc4)cc3C2=O)C(=O)N1` (stereo not shown) [A88], the inhibition at 1 µM on c-Myc protein lay within 60 to 90%. For the same compound, the IC50 in the test with HL60 cells was found to be 83.1 nM.

On to `O=C1CCC(N2C(=O)c3ccc(C(=O)NCc4ccc(CN(CCn5c6ccccc6c6cccnc65)C5CC5)cc4)cc3C2=O)C(=O)N1` (stereo not shown) [A89], for which the inhibition at 1 µM on c-Myc protein was 60 to 90%. Further, the IC50 with HL60 cells was determined as 81.1 ± 36.9 nM.

For the compound `COCCN(CCc1cccc2ccccc12)Cc1ccc(CNC(=O)c2ccc3c(c2)C(=O)N(C2CCC(=O)NC2=O)C3=O)cc1` (stereo not shown) [A90], the inhibition at 1 µM at c-Myc protein fell in the range of 60 to 90%. Also, the IC50 in the test with HL60 cells is < 3 nM.

Take `COCCN(CCn1c2ccccc2c2cccnc21)Cc1ccc(CNC(=O)c2ccc3c(c2)C(=O)N(C2CCC(=O)NC2=O)C3=O)cc1` (stereo not shown) [A91]: at c-Myc protein, the inhibition at 1 µM lay within 60 to 90%. In addition, in the test with HL60 cells, the IC50 was determined as 12 ± 4.4 nM.

For the compound `N#CCCN(CCc1cccc2ccccc12)Cc1ccc(CNC(=O)c2ccc3c(c2)C(=O)N(C2CCC(=O)NC2=O)C3=O)cc1` (stereo not shown) [A92], the inhibition at 1 µM on c-Myc protein fell in the range of 60 to 90%. Further, the IC50 with HL60 cells was 440 ± 120 nM.

For the compound `N#CCCN(CCn1c2ccccc2c2cccnc21)Cc1ccc(CNC(=O)c2ccc3c(c2)C(=O)N(C2CCC(=O)NC2=O)C3=O)cc1` (stereo not shown) [A93], at c-Myc protein, the inhibition at 1 µM lay in the range of 60 to 90%. The IC50 with HL60 cells is 171 ± 60.4 nM.

`O=C1CCC(N2C(=O)c3ccc(C(=O)NCc4ccc(CN(CCc5cccc6ccccc56)c5ccccc5)cc4)cc3C2=O)C(=O)N1` (stereo not shown) [A94]: the inhibition at 1 µM on c-Myc protein was in the range of 60 to 90%. Also, the IC50 in the test with HL60 cells stood at 289 ± 48.3 nM.

In the case of `O=C1CCC(N2C(=O)c3ccc(C(=O)NCc4ccc(CN(CCn5c6ccccc6c6cccnc65)c5ccccc5)cc4)cc3C2=O)C(=O)N1` (stereo not shown) [A95], the inhibition at 1 µM on c-Myc protein is 60 to 90%. In addition, in the test on HL60 cells, the IC50 was 43.6 ± 44 nM.

With `O=C1CCC(N2C(=O)c3ccc(C(=O)NCc4ccc(CN(CCc5cccc6ccccc56)Cc5ccccc5)cc4)cc3C2=O)C(=O)N1` (stereo not shown) [A96], the inhibition at 1 µM at c-Myc protein fell in the range of 60 to 90%. The IC50 with HL60 cells was 960 ± 121 nM.

For the compound `O=C1CCC(N2C(=O)c3ccc(C(=O)NCc4ccc(CN(CCn5c6ccccc6c6cccnc65)Cc5ccccc5)cc4)cc3C2=O)C(=O)N1` (stereo not shown) [A97], on c-Myc protein, the inhibition at 1 µM was in the range of 60 to 90%. The IC50 in the test with HL60 cells came to 169 ± 50.7 nM.

For the compound `CN(CCc1nccc2ccccc12)Cc1ccc(CNC(=O)c2ccc3c(c2)C(=O)N(C2CCC(=O)NC2=O)C3=O)cc1` (stereo not shown) [A98], at c-Myc protein, the inhibition at 1 µM was 60 to 90%. Further, the IC50 with HL60 cells was found to be 11.2 ± 1.3 nM.

With `CN(CCc1cccc(Cl)c1Cl)Cc1ccc(CNC(=O)c2ccc3c(c2)C(=O)N(C2CCC(=O)NC2=O)C3=O)cc1` (stereo not shown) [A99], at c-Myc protein, the inhibition at 1 µM lay in the range of 60 to 90%. Besides, the IC50 with HL60 cells was 19.8 ± 4.8 nM.

Turning to `CN(CCc1ccc(Cl)cc1Cl)Cc1ccc(CNC(=O)c2ccc3c(c2)C(=O)N(C2CCC(=O)NC2=O)C3=O)cc1` (stereo not shown) [A100], the inhibition at 1 µM at c-Myc protein fell in the range of 60 to 90%. Also, in the test with HL60 cells, the IC50 amounted to 0.9 nM.

For the compound `CN(CCc1ccc(Cl)c(Cl)c1)Cc1ccc(CNC(=O)c2ccc3c(c2)C(=O)N(C2CCC(=O)NC2=O)C3=O)cc1` (stereo not shown) [A101], the inhibition at 1 µM at c-Myc protein was 60 to 90%. Moreover, the IC50 with HL60 cells amounted to 0.4 nM.

Take `O=C(Cc1cccc2ccccc12)NCc1ccc(CNC(=O)c2ccc3c(c2)C(=O)N(C2CCC(=O)NC2=O)C3=O)c(F)c1` (stereo not shown) [A103]: the inhibition at 1 µM at c-Myc protein lay in the range of 60 to 90%. The IC50 in the test on HL60 cells worked out at 5.8 ± 2.5 nM.

Regarding `O=C(Cn1c2ccccc2c2cccnc21)NCc1ccc(CNC(=O)c2ccc3c(c2)C(=O)N(C2CCC(=O)NC2=O)C3=O)c(F)c1` (stereo not shown) [A104], the inhibition at 1 µM on c-Myc protein was 60 to 90%. In the test with HL60 cells, the IC50 is 2.5 ± 0.7 nM.

`CN(CCc1cccc2ccccc12)Cc1ccc(CNC(=O)c2ccc3c(c2)C(=O)N(C2CCC(=O)NC2=O)C3=O)c(F)c1` (stereo not shown) [A105]: the inhibition at 1 µM on c-Myc protein was in the range of 60 to 90%. Further, the IC50 in the test on HL60 cells amounted to 8.3 ± 1.9 nM.

With `CN(CCn1c2ccccc2c2cccnc21)Cc1ccc(CNC(=O)c2ccc3c(c2)C(=O)N(C2CCC(=O)NC2=O)C3=O)c(F)c1` (stereo not shown) [A106], on c-Myc protein, the inhibition at 1 µM lay within 60 to 90%. For the same compound, in the test with HL60 cells, the IC50 stood at 4.2 nM.

With `O=C(Cc1cccc2ccccc12)NCc1ccc(CNC(=O)c2ccc3c(c2)C(=O)N(C2CCC(=O)NC2=O)C3=O)cc1F` (stereo not shown) [A107], the inhibition at 1 µM at c-Myc protein fell in the range of 60 to 90%. The IC50 in the test on HL60 cells stood at 3.4 nM.
